Literature values, collected in patent US12552830B2, “Steroidal compound derivatives as therapeutic agents” (priority 2020, dated 2026).
Entries after “also recorded” stand apart in the source; their conditions may differ.

Key:
HIV = settings: latent CD4+T cells, in vitro
[1] = system: transactivator of transcription (Tat)
[2] = system: human umbilical endothelial cell (HUVEC)

Molecule | viral reactivation of HIV (HIV) | inhibition of Tat [1] | IC50 ([2]; HUVECs, read-out: IC50, selective anti-proliferative activity of HUVECs) [nM] | selectivity for HUVECs over other cell lines ([2]; over NHDF, KB3-1, K562 and Neuro2A cells) [fold]
CN(C)[C@H]1C[C@@]23CC[C@@]4(O2)C(=CC[C@]2(C)C(c5ccc6ccncc6c5)=CCC24)C=C3[C@@H](O)[C@@H]1O (stereo partly shown) [dCA, didehydro-cortistatin A] | prevents viral reactivation of HIV in vitro; also recorded: prevents viral reactivation in latent CD4+T cells in vitro | most potent inhibitor of transactivator of transcription (Tat) | – | –
cortistatin A | – | – | 1.8 | 3000
